From patent US6180385A (priority 1996, dated 2001)

Biological target: Lb proteinase (Foot-and-mouth disease virus serotype O, UniProt P03305)
Sequence (P03305 29-201 limits assumed): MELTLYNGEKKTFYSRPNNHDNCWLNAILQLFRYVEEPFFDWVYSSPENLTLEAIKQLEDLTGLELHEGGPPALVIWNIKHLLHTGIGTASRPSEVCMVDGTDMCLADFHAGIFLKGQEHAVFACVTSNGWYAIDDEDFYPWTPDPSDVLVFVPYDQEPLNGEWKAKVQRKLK

## AKVQRKLKGAGQSSPA [LVP4-1]
  FMDV Lb cleavage site on the peptide (* indicates cleavage site): K*G
  cleavage of peptide in the absence of SDS (controls): complete cleavage
  peptide cleaved by Lb (qualitative): cleaved
Lb proteinase, 4 min, 100 µM, pH 8
  cleavage of peptide by Lb after 4 min: more than 80%
Lb proteinase, 8 min, 100 µM, pH 8
  cleavage of peptide by Lb after 8 min: about 90%
